Laboratory results taken from US20140137294A1, “GLUCOSINOLATE TRANSPORTER PROTEIN AND USES THEREOF” (UNIVERSITY OF COPENHAGEN, priority 2010, published 2014).

B1: AtGTR5: Arabidopsis GTR protein, SEQ ID NO: 10 (protein, listed as Arabidopsis thaliana)
chain: MVLEDRKDGSSLPGRSGSFSKSSPSELDVVDPYKRISSPGSILDAEKVEKKPGGWRAVSFILGNETLERLGSIGLLANFMVYLTKVFHLEQVDAANVINIWSGFTNLTPLVGAYISDTYVGRFKTIAFASFATLLGLITITLTASFPQLHPASCNSQDPLSCGGPNKLQIGVLLLGLCFLSVGSGGIRPCSIPFGVDQFDQRTEEGVKGVASFFNWYYMTFTVVLIITQTVVVYIQDQVSWIIGFSIPTGLMALAVVMFFAGMKRYVYVKPEGSIFSGIAQVIVAARKKRKLKLPAEDDGTVTYYDPAIKSSVLSKLHRSNQFRCLDKAAVVIEGDLTPEGPPADKWRLCSVQEVEEVKCLIRIVPIWSAGIISLAAMTTQGTFTVSQALKMDRNLGPKFEIPAGSLSVISLLTIGIFLPFYDRVFVPFMRRITGHKSGITLLQRIGTGIVFAIFSMIVAGIVERMRRIRSINAGDPTGMTPMSVFWLSPQLILMGLCEAFNIIGQIEFFNSQFPEHMRSIANSLFSLSFAGSSYLSSFLVTVVHKFSGGHDRPDWLNKNLNAGKLDYFYYLIAVLGVVNLVYFWYCARGYRYKVGLPIEDFEEDKSSDDVEMTSKKSMK
B2: AtGTR4: Arabidopsis GTR protein, SEQ ID NO: 8 (protein, listed as Arabidopsis thaliana)
chain: MDNEKGTSSSDLTTRQRKPLGWKAMPYIIGNETLERLATFGLMANFMVYMVREYHMDQVQAVTLINTWSALTNFAPIIGAFISDSYTGKFNTIVFGSIAELLGMLVLTFTSLVPNLRPPPCTADQITGQCIPYSYSQLYVLLSGLFLLSVGTGGIRSCSVPFSLDQFDDSTEEGREGSRSFFSWYYTTHTIVQLVSMTLVLYVQNNISWGIGFAIPTVLNFFALLLLFVGTRYYVFVKPEGSVFSGVFKVLVAAYKKRKARFTSGIDYHQPLLETDLQSNKLVLTDQFRFLNKAVIVMNNDEAGNEEWRTCTVRQIEDIKSIISIIPIFASSIIGFLAMNQQQTFTVSQALKMDLQFPGTSYLIPPASITVISLLNIGIWLPFYETVLVRHIENITKQNGGISLLQKVGIGNIFSISTMLISGIVERKRRDLSLNGVKMSVFWLTPQQVLMGFYQVFTIVGLTEFFNKQVPINMRSIGNSLLYLGLSLASYLSSAMVSIVHSVTARGGQSWLTDDIDKSKLDCFYYFIAALSTLNFIFFFWCARRYRYRNYSNEQ

Assays:
Format in all cases: cell-based
AtGTR1 [1] = target: T1, AtGTR1 (Arabidopsis thaliana, UniProt Q944G5); assay: Substrate-induced currents in voltage-clamped Xenopus oocytes expressing AtGTR1; details: 1 mM NO3−, AtGTR1
T1 construct: A library of Arabidopsis transporters available as full length cDNAs from the RIKEN bioresource center; expressed in transfected cells; host or cells: Xenopus oocytes injected with in vitro transcribed cRNA
T1 sequence (Q944G5 31-636 limits assumed): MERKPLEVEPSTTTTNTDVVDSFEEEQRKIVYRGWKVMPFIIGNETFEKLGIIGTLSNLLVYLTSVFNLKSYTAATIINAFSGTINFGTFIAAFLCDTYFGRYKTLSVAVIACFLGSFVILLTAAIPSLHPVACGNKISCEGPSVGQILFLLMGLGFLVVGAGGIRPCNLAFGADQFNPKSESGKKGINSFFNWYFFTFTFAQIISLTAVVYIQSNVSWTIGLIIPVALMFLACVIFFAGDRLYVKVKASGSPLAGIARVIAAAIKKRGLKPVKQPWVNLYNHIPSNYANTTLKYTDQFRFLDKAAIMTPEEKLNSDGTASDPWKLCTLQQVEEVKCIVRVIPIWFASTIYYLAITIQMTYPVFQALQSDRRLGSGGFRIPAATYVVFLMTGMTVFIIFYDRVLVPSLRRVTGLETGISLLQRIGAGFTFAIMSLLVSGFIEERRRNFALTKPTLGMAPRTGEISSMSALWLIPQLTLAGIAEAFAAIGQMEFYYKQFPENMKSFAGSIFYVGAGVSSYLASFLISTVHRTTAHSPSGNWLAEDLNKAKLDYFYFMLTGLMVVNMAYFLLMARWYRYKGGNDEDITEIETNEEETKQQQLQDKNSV

AtGTR1 [2] = target: T1, AtGTR1; assay: Uptake of C14-labeled pOHBG in AtGTR1 expressing oocytes in presence of excess competitor; details: 50× excess unlabeled competitor, AtGTR1, pH 5
Method: (§1) FIG. 3: Biochemical analysis of AtGTR1 and 2 mediated GSL transport in Xenopus oocytes. A and B, pH dependence of AtGTR-mediated GSL transport. A, AtGTR2 mediated 4-MTB uptake measured by LC-MS analysis of oocyte extracts, n=3 oocytes. B, AtGTR1 currents induced by 1 mM 4-MTB were measured at different membrane potentials at pH 5 ([…]), pH 6 (♦), and pH 7 (▴). Currents were normalized to the current induced at pH 5 at −60 mV, error bars are SD, n=4 oocytes. C and D, kinetic analysis of AtGTR-mediated glucosinolate transport. […]
(§2) The substrate specificity investigations were extended to include substrates previously identified for the NRT/PTR transporter family namely di- and tripeptides and nitrate. […] However, perfusing with 1 mM NO3^− did result in currents but these amounted only to 1/10th of currents measured when perfusing with 100 μM 4-MTB (FIG. 3F). […]
(§3) For assays with radiolabeled substrates, single oocytes were ruptured in 100 μl 10% SDS in 4 ml scintillation vials by shaking for 20-30 minutes. 2.5 ml EcoScint™ scintillation fluid (National Diagnostics) was added, and imported compounds quantified by scintillation counting. For assays with unlabeled substrates, oocyte extracts were analysed by LC-MS. Oocytes were analyzed in batches of 5 oocytes per repetition. […]

AtGTR2 = target: T2, AtGTR2 (Arabidopsis thaliana, UniProt Q9LV10); assay: Uptake of C14-labeled pOHBG in AtGTR2 expressing oocytes in presence of excess competitor; details: 50× excess unlabeled competitor, AtGTR2, pH 5
T2 construct: expressed in transfected cells; host or cells: Xenopus oocytes injected with in vitro transcribed cRNA (vector pNB1u)
T2 sequence (Q9LV10 1-616): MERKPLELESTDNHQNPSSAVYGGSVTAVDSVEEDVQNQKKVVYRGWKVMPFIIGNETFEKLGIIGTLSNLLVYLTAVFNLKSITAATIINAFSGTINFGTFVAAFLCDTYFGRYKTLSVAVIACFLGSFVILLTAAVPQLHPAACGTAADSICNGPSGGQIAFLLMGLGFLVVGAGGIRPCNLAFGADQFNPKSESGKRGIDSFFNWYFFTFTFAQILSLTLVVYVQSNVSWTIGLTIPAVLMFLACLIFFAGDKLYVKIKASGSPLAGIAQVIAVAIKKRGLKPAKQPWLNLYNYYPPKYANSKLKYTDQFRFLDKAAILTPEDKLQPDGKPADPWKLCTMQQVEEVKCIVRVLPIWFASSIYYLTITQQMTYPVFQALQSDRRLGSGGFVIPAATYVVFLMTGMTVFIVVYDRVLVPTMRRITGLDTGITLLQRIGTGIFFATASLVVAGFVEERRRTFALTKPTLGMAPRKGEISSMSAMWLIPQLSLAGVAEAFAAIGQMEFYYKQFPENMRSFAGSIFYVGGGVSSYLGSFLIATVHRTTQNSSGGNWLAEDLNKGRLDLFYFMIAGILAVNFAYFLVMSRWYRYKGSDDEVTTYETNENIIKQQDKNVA
Method: as §1, §2, §3

Xenopus oocytes = assay: 4-MTB uptake in Xenopus oocytes expressing Arabidopsis GTR and other NRT/PTR proteins (LC-MS); details: pH 5, 1 mM 4-MTB

Molecule	currents as fraction of currents with 100 μM 4-MTB (AtGTR1 [1])	effect on uptake of 40 μM C14-labeled pOHBG (AtGTR1 [2])	effect on uptake of 40 μM C14-labeled pOHBG (AtGTR2)	4-MTB uptake activity compared to AtGTR1 (Xenopus oocytes)
O=[N+]([O-])O [NO3^−, nitrate]	1/10	did not have significant inhibitory effects	did not have significant inhibitory effects	–
B1	–	–	–	10%
B2	–	–	–	10%
